What all share (assay): NCI anticancer screen, dose series, 48 h
Assay [1] relates to A549 NSCLC.
In assay [2] the test system is DU-145 prostate.
Assay [3] deals with EKVX NSCLC.
Assay [4] deals with MALME-3M melanoma.
In assay [5] the test system is MDA-MB-231 breast.
Assay [6] deals with MDA-MB-435.
The subject of assay [7] is OVCAR-5 ovarian.
Assay [8] concerns RXF 393 renal.
Assay [9] relates to SK-MEL-28 melanoma.
The test system of assay [10] is U251 CNS.

The source of these data is PubChem BioAssay (NCI).

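In this assay, cells in 96-well plates receive the compound at five concentrations for 48 hours. Endpoints are linearly interpolated between the surrounding concentrations. TGI: total growth inhibition.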 A value given as a limit tells only on which side of the number the result lay.

For the compound `CC(C)(C)C(=O)OCC1CCC[N+]2(C)CCCCC12` (stereo not given), the TGI in [1], in assay [2], in assay [3], in [4], in [5] and in [6] was > 100 µM each time. Also, the TGI in [7], in assay [8], in [9] and in [10] was > 100 µM in each case.

As for `O=C(O)c1nc(-c2ccccc2)ncc1-c1nnnn1-c1ccccc1`, the TGI in assay [1], in assay [2], in [3], in assay [4], in [5] and in [6] was > 100 µM in each case. In addition, the TGI in assay [7], in [8], in assay [9] and in assay [10] was > 100 µM each time.

In the case of `CC(C)C1OC23CCCCC2C(C#N)(C#N)C1(C#N)C(=N)O3` (stereo not given), the TGI was > 100 µM in assay [1]; 94.8 µM in assay [2]; 77.7 µM in assay [3]; 39.6 µM in [4]; 39.7 µM in [5]; 80.6 µM in assay [6]. In addition, the TGI came to 47.5 µM in assay [7], 46.4 µM in [8], 87.3 µM in assay [9] and 63.9 µM in [10].

Consider `COc1cc(C2c3cc4c(cc3OC(N3CCCC3)C2C)OCO4)cc(OC)c1O` (stereo not given), for which the TGI in assay [1] was > 100 µM; in assay [2] it was > 90 µM; in [3] it was > 80.7 µM; in [4], > 66 µM; in assay [5] it was > 93.3 µM; in assay [6], 15.2 µM. The TGI was > 100 µM in assay [7], > 42.7 µM in assay [8], > 100 µM in assay [9] and 42.6 µM in [10].

For `COc1cc(-c2cc(=O)c3c(OC)c(OC)c(OC)c(OC)c3o2)c(OC)c(OC)c1OC`, the TGI in assay [1], in assay [2], in assay [3], in assay [4], in assay [5] and in [6] was > 100 µM throughout. Also, the TGI in [7], in [8], in assay [9] and in [10] was > 100 µM throughout.

As to `COc1cc(/C=C2\CCC(C)C3C2=NN(C(C)=O)C3c2cc(OC)c(OC)c(OC)c2)cc(OC)c1OC` (stereo not given), the TGI in assay [1], in assay [2], in assay [3], in [4], in [5] and in assay [6] was > 100 µM each time. In addition, the TGI is > 36.3 µM in assay [7], > 100 µM in assay [8], > 51.2 µM in assay [9] and > 100 µM in [10].

With `CN(c1ccc(Cl)cc1)S(=O)(=O)c1cccc([N+](=O)[O-])c1`, the TGI in [1], in assay [2], in [3], in assay [4], in assay [5] and in [6] was > 100 µM each time. In addition, the TGI in assay [7], in assay [8], in assay [9] and in [10] was > 100 µM each time.

On to `CC1=C(C#N)C(C#N)(C#N)C(NN(C)C)C1` (stereo not given), for which the TGI was > 100 µM in [1]; 33.8 µM in assay [2]; 86.3 µM in assay [3]; 98.2 µM in [4]; 28.4 µM in [5]; 75 µM in [6]. Besides, the TGI in assay [7] was 47.4 µM; in [8], 31.3 µM; in [9], > 100 µM; in assay [10], > 100 µM.

Take `CN1C(=O)N/C(=C\c2ccc(S(=O)(=O)NN)cc2)C1=O`: the TGI in assay [1], in assay [2], in [3], in assay [4], in assay [5] and in [6] was > 100 µM each time. Further, the TGI in [7], in assay [8], in [9] and in assay [10] was > 100 µM throughout.

As to `O=[N+]([O-])c1ccc(Cl)c(C=NC23CC4CC(CC(C4)C2)C3)c1`, the TGI in [1], in [2], in assay [3], in [4], in assay [5] and in assay [6] was > 10 µM throughout. In addition, the TGI in assay [7], in [8], in assay [9] and in assay [10] was > 10 µM throughout.

On to `CC1(CCCO)CCCCCC(C)(CCCO)C1=O` (stereo not given), for which the TGI in [1], in assay [2], in assay [3], in [4], in assay [5] and in [6] was > 100 µM throughout. In addition, the TGI in assay [7], in [8], in assay [9] and in assay [10] was > 100 µM in each case.

For the compound `CCC(=O)NC(Nc1cccc(F)c1C)(C(F)(F)F)C(F)(F)F`, the TGI in assay [1], in [2], in [3], in [4], in assay [5] and in [6] was > 100 µM each time. Further, the TGI was > 100 µM in assay [7], 80.7 µM in [8], > 100 µM in assay [9] and > 100 µM in assay [10].

As to `CCCCCN=Cc1c(O)c(O)c(C(C)C)c2cc(C)c(-c3c(C)cc4c(C(C)C)c(O)c(O)c(C=NCCCCC)c4c3O)c(O)c12`, the TGI in assay [1] was > 100 µM; in assay [2] it was > 100 µM; in assay [3], > 100 µM; in assay [4] it was 33.1 µM; in [5], 65.1 µM; in assay [6], 17.8 µM. For the same compound, the TGI in assay [7] was > 100 µM; in [8] it was 46.8 µM; in [9], 26.5 µM; in assay [10] it was 18 µM.

Take `NS(=O)(=O)c1nn2c(Br)c(-c3ccccc3)nc2s1`: the TGI in [1] is 21.6 µM; in assay [2], 8.5 µM; in assay [3], 31.9 µM; in assay [4], 13.7 µM; in assay [5] it was 15.9 µM; in [6] it was 16.3 µM. Also, the TGI in assay [7] came to 24.3 µM; in [8], 9.48 µM; in assay [9] it was 23.1 µM; in assay [10], 15.6 µM.

With `COc1ccc(/C=C(/C(=O)c2ccc(Cl)cc2)N2C=CC=CC2=C(C#N)C#N)cc1OC`, the TGI came to 30.4 µM in assay [1]; 28.5 µM in [2]; 10.6 µM in assay [3]; 2.91 µM in assay [4]; 21.6 µM in assay [5]; 19.1 µM in assay [6]. Besides, the TGI in assay [7] came out at 32.6 µM; in assay [8], 4.75 µM; in assay [9], 11.5 µM; in [10], 24.4 µM.

On to `CCc1nc(N)nc(N)c1-c1ccc(Cl)c(Cl)c1`, for which the TGI in assay [1], in [2], in [3], in [4], in assay [5] and in assay [6] was > 100 µM throughout. Also, the TGI in [7], in [8], in assay [9] and in assay [10] was > 100 µM in each case.

Turning to `CN(c1ccc(Cl)cc1)S(=O)(=O)c1ccc([N+](=O)[O-])cc1`, the TGI in assay [1], in assay [2], in assay [3], in assay [4], in assay [5] and in assay [6] was > 100 µM throughout. Besides, the TGI in assay [7], in assay [8], in assay [9] and in assay [10] was > 100 µM each time.

Take `CC1CC(N)=Nc2ccccc2N1` (stereo not given): the TGI in [1], in assay [2], in assay [3], in [4], in [5] and in assay [6] was > 100 µM each time. In addition, the TGI in [7], in [8], in assay [9] and in assay [10] was > 100 µM throughout.

Take `C=C1CC(c2ccc(OCCCN3C(=O)c4ccccc4C3=O)c(OC)c2)OC1=O` (stereo not given): the TGI in assay [1] turned out to be 27 µM; in [2], 24.5 µM; in assay [3], 30.6 µM; in [4], 12.4 µM; in assay [5], 30.5 µM; in [6] it was 11.7 µM. Moreover, the TGI in assay [7] was found to be 31.9 µM; in assay [8] it was 7 µM; in assay [9], 9.34 µM; in assay [10], 23.5 µM.

For the compound `CCc1nc(N)nc(N)c1-c1ccc2nn(-c3ccccc3)[n+]([O-])c2c1`, the TGI in assay [1] amounted to 27.8 µM; in assay [2], 20.1 µM; in [3], 35.1 µM; in assay [4], 22.7 µM; in assay [5], 25.5 µM; in assay [6], 19.5 µM. Moreover, the TGI in assay [7] was 44.3 µM; in assay [8], 25 µM; in assay [9], 25.1 µM; in [10], 22.1 µM.

Take `O=[N+]([O-])c1ccc(/C=N/n2c(CO)nc3ccccc32)o1`: the TGI was found to be 36.5 µM in assay [1]; 13.9 µM in assay [2]; 23.6 µM in assay [3]; 5.44 µM in assay [4]; 20.6 µM in assay [5]; 13.9 µM in [6]. Further, the TGI in assay [7] was found to be 24.7 µM; in assay [8], 18.3 µM; in assay [9], 12.6 µM; in assay [10], 37.2 µM.

Turning to `CC(=O)n1nc(-c2ccccc2)n(/N=C/c2ccc([N+](=O)[O-])cc2)c1=O`, the TGI in [1], in [2], in assay [3], in assay [4], in [5] and in [6] was > 100 µM in each case. The TGI in assay [7], in [8], in assay [9] and in assay [10] was > 100 µM throughout.

Take `CCC1(CC)SCc2nc3ccccc3n21`: the TGI in assay [1] is > 100 µM; in assay [2], > 100 µM; in assay [3], 73.7 µM; in [4], 94.8 µM; in assay [5] it was 90.5 µM; in assay [6] it was 68 µM. Further, the TGI is > 100 µM in assay [7], 94.5 µM in assay [8], > 100 µM in [9] and > 100 µM in [10].

Consider `CNc1ccc(OC)cc1S(=O)(=O)c1ccccc1[N+](=O)[O-]`, for which the TGI in assay [1], in assay [2], in assay [3], in assay [4], in assay [5] and in [6] was > 100 µM each time. The TGI in assay [7], in assay [8], in assay [9] and in assay [10] was > 100 µM throughout.

Turning to `C=CC(Br)(CBr)CCC(Cl)C(C)C` (stereo not given), the TGI in assay [1] amounted to 18 µM; in assay [2], 8.69 µM; in assay [3] it was 21.8 µM; in [4], 3.71 µM; in [5] it was 2.79 µM; in assay [6], 3.5 µM. Moreover, the TGI stood at 5.03 µM in [7], 3.31 µM in [8], 2.98 µM in [9] and 3.02 µM in assay [10].

With `CCCCCCCCCCCCCCCCCCNc1ccn(C2OC(COP(=O)(O)OCC3OC(n4cc(C)c(=O)[nH]c4=O)CC3O)C(O)C2O)c(=O)n1` (stereo not given), the TGI in [1] stood at 32.4 µM; in assay [2] it was 35.8 µM; in assay [3], 34.9 µM; in [4], 31.4 µM; in assay [5] it was 31.1 µM; in assay [6] it was 33.7 µM. Moreover, the TGI stood at 28.2 µM in assay [7], 25.9 µM in assay [8], 31.3 µM in assay [9] and 34.9 µM in assay [10].

Consider `COC(=O)C(C)(NC(=O)C(CC(=O)OC(C)(C)C)NC(=O)OC(C)(C)C)c1ccccc1` (stereo not given), for which the TGI in [1], in assay [2], in [3], in [4], in assay [5] and in assay [6] was > 100 µM each time. The TGI in assay [7], in assay [8], in assay [9] and in assay [10] was > 100 µM each time.
